Measured values published in ChEMBL document CHEMBL6109084 (Eur J Med Chem, 2025).
Active and inactive are the calls of the source. The rule behind the calls is not given here.

Experiments:
[1] = Selectivity index, ratio of IC50 for inhibition of trypsin (unknown origin) using Bz-Ile-Glu(gamma-OR)-Gly-Arg-pNA.HCl as substrate to IC50 for inhibition of human FXIa using p-Glu-Pro-Arg-pNA.HCl as substrate
[2] = tested on: Plasma; test: Anticoagulant activity in citrated human plasma assessed as prolongation of activated partial thromboplastin time incubated for 3 mins by aPTT reagent based automated coagulometric analysis; assay type: functional
[3] = target: Coagulation factor XI (Homo sapiens, UniProt P03951); test: Inhibition of human FXIa using p-Glu-Pro-Arg-pNA.HCl as substrate incubated for 30 mins followed by substrate addition and measured after 60 mins by microplate reader analysis
[4] = Selectivity index, ratio of IC50 for inhibition of tPA (unknown origin) using H-D-Ile-Pro-Arg-pNA-2HCl as substrate to IC50 for inhibition of human FXIa using p-Glu-Pro-Arg-pNA.HCl as substrate
[5] = tested on: Plasma; test: Anticoagulant activity in mouse plasma assessed as prolongation of activated partial thromboplastin time incubated for 3 mins by aPTT reagent based automated coagulometric analysis; assay type: functional; conditions: 0.05 h
[6] = Selectivity index, ratio of IC50 for inhibition of plasmin (unknown origin) using PyroGlu-Phe-Lys-pNA.HCl as substrate to IC50 for inhibition of human FXIa using p-Glu-Pro-Arg-pNA.HCl as substrate
[7] = target: Chymotrypsin (Homo sapiens, UniProt Q99895+P17538+P40313+Q6GPI1); test: Inhibition of chymotrypsin (unknown origin) using N-Suc-Ala-Ala-Pro-Phe-pNA as substrate incubated for 30 mins followed by substrate addition and measured after 60 mins by microplate reader analysis; assay type: protein assay
[8] = tested on: Plasma; test: Anticoagulant activity in citrated human plasma assessed as prolongation of prothrombin time incubated for 3 mins by PT reagent based automated coagulometric analysis; assay type: functional, cell-free
[9] = target: Coagulation factor X (Homo sapiens, UniProt P00742); test: Inhibition of FXa (unknown origin) using Z-D-Arg-Gly-Arg-pNA.2HCl as substrate incubated for 30 mins followed by substrate addition and measured after 60 mins by microplate reader analysis
[10] = tested on: Plasma; test: Anticoagulant activity in citrated human plasma assessed as prolongation of activated partial thromboplastin time at 1 uM incubated for 3 mins by aPTT reagent based automated coagulometric analysis relative to control; assay type: functional; conditions: 0.05 h
[11] = Selectivity index, ratio of IC50 for inhibition of FXIIa (unknown origin) using H-D-ProPhe-Arg-pNA.2HCl as substrate to IC50 for inhibition of human FXIa using p-Glu-Pro-Arg-pNA.HCl as substrate
[12] = Selectivity index, ratio of IC50 for inhibition of FXa (unknown origin) using Z-D-Arg-Gly-Arg-pNA.2HCl as substrate to IC50 for inhibition of human FXIa using p-Glu-Pro-Arg-pNA.HCl as substrate
[13] = Selectivity index, ratio of IC50 for inhibition of thrombin (unknown origin) using H-D-Phe-Pip-Arg-pNA.2HCl as substrate to IC50 for inhibition of human FXIa using p-Glu-Pro-Arg-pNA.HCl as substrate
[14] = target: Trypsin (Homo sapiens, UniProt P07477+P07478+P35030); test: Inhibition of trypsin (unknown origin) using Bz-Ile-Glu(gamma-OR)-Gly-Arg-pNA.HCl as substrate incubated for 30 mins followed by substrate addition and measured after 60 mins by microplate reader analysis; assay type: protein assay
[15] = target: Prothrombin (Homo sapiens, UniProt P00734); test: Inhibition of thrombin (unknown origin) using H-D-Phe-Pip-Arg-pNA.2HCl as substrate incubated for 30 mins followed by substrate addition and measured after 60 mins by microplate reader analysis
[16] = target: Tissue-type plasminogen activator (Homo sapiens, UniProt P00750); test: Inhibition of tPA (unknown origin) using H-D-Ile-Pro-Arg-pNA-2HCl as substrate incubated for 30 mins followed by substrate addition and measured after 60 mins by microplate reader analysis
[17] = target: Plasminogen (Homo sapiens, UniProt P00747); test: Inhibition of plasmin (unknown origin) using PyroGlu-Phe-Lys-pNA.HCl as substrate incubated for 30 mins followed by substrate addition and measured after 60 mins by microplate reader analysis
[18] = Selectivity index, ratio of IC50 for inhibition of chymotrypsin (unknown origin) using N-Suc-Ala-Ala-Pro-Phe-pNA as substrate to IC50 for inhibition of human FXIa using p-Glu-Pro-Arg-pNA.HCl as substrate
[19] = target: Plasma kallikrein (Homo sapiens, UniProt P03952); test: Inhibition of PKal (unknown origin) using H-D-Pro-Phe-Arg-pNA.2HCl as substrate incubated for 30 mins followed by substrate addition and measured after 60 mins by microplate reader analysis
[20] = target: T1, Coagulation factor XII (Homo sapiens, UniProt P00748); test: Inhibition of FXIIa (unknown origin) using H-D-ProPhe-Arg-pNA.2HCl as substrate incubated for 30 mins followed by substrate addition and measured after 60 mins by microplate reader analysis
T1 sequence (P00748 whole entry): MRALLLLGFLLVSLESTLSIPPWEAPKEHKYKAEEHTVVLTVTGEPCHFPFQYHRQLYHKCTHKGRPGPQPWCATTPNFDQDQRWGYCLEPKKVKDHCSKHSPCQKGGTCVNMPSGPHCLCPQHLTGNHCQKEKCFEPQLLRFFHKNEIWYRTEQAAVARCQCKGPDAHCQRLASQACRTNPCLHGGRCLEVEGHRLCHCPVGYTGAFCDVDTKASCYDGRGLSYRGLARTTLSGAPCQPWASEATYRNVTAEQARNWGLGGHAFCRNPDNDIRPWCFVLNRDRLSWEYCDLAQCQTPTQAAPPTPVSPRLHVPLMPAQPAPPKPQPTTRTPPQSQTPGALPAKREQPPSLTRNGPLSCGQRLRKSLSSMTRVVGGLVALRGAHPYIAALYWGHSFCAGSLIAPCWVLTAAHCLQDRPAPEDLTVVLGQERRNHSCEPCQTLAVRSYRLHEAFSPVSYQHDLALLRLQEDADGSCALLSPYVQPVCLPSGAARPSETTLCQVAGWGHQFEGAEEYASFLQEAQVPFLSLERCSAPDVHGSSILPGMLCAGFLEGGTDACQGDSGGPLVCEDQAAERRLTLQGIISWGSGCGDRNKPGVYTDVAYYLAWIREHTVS

[21] = tested on: Mus musculus; test: Antithrombotic activity in FeCl3-induced carotid arterial thrombosis C57BL/6J mouse model assessed as increase in blood flow velocity at 10 mg/kg, po measured after 0.5 to 4 hrs; assay type: functional, organism-based; conditions: time 0.5-4 hrs
[22] = tested on: Mus musculus; test: Antithrombotic activity in FeCl3-induced carotid arterial thrombosis C57BL/6J mouse model assessed as increase in peak velocity at 10 mg/kg, po measured after 0.5 to 4 hrs; assay type: functional, organism-based; conditions: time 0.5-4 hrs
[23] = Plasma protein binding in human; assay type: ADME, cell-free; conditions: read-out: PPB (converted)
[24] = Toxicity in male New Zealand white rabbit assessed as prolongation of bleeding time at 2 mg/kg, iv by ear bleeding assay; assay type: organism-based, Oryctolagus cuniculus; conditions: in vivo
[25] = Cytotoxicity against human AC16 [Human hybrid] cells assessed as reduction in cell viability at 1 to 50 uM incubated for 24 hrs by MTT assay; assay type: toxicity, cell-based; conditions: dose 1-50 µM
[26] = tested on: HK-2; test: Cytotoxicity against human HK-2 cells assessed as reduction in cell viability at 1 to 50 uM incubated for 24 hrs by MTT assay; assay type: toxicity, cell-based; conditions: hk-2, 24 h, dose 1-50 µM
[27] = tested on: HepG2; test: Cytotoxicity against human HepG2 cells assessed as reduction in cell viability at 1 to 50 uM incubated for 24 hrs by MTT assay; assay type: toxicity, cell-based; conditions: hepg2, 24 h, dose 1-50 µM
[28] = Toxicity in C57BL/6J mouse assessed as prolongation of bleeding time at 10 mg/kg, IG measured after 30 mins by tail bleeding assay; assay type: organism-based; conditions: in vivo, po, 0.5 h

Chain of Coagulation factor XI (P03951 19-387 limits assumed): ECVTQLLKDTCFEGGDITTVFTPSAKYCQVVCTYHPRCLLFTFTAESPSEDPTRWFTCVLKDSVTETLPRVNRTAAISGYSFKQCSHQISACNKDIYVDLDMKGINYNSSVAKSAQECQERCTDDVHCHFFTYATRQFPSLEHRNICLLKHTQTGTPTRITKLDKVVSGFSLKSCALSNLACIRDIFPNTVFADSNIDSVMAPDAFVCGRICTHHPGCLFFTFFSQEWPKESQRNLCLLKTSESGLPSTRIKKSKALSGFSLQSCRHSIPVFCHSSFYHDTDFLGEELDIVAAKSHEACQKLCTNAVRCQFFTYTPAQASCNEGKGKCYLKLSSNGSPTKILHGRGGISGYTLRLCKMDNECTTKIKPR
Chain of Coagulation factor XI (P03951 388-625 limits assumed): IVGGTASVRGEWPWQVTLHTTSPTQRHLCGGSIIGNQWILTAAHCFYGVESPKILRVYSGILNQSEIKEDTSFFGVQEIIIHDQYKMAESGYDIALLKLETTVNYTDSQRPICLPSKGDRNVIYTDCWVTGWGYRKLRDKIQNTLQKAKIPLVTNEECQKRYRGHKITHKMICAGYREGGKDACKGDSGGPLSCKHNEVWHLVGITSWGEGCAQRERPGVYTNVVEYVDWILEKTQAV
Chain of Coagulation factor X (P00742 41-179 limits assumed): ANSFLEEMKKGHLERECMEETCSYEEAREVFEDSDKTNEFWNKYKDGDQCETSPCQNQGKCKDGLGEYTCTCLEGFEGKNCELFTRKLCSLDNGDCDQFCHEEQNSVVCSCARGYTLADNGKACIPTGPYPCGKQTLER
Chain of Coagulation factor X (P00742 235-488 limits assumed): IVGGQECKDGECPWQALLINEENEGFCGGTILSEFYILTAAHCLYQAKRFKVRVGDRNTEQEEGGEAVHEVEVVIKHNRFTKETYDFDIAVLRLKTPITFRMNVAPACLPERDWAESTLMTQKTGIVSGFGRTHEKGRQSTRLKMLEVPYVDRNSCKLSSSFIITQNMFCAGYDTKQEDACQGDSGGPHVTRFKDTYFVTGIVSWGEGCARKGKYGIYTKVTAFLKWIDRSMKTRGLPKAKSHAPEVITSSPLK
Chain of Plasma kallikrein (P03952 20-390 limits assumed): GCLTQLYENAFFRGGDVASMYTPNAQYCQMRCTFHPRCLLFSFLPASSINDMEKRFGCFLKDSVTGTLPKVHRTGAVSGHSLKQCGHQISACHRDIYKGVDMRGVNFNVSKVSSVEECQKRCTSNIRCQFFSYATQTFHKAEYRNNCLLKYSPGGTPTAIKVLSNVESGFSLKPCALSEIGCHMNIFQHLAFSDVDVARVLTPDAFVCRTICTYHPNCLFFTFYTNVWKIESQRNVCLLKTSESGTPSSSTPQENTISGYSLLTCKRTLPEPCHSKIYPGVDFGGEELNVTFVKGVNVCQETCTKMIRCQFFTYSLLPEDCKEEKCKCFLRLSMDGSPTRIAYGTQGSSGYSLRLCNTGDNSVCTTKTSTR
Chain of Plasma kallikrein (P03952 391-638 limits assumed): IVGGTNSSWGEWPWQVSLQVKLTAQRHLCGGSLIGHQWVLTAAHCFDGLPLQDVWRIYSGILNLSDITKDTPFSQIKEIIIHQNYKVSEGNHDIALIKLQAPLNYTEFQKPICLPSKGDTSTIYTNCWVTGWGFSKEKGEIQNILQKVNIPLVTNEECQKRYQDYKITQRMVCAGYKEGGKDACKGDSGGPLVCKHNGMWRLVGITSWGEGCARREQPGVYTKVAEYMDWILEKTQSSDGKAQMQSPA
Chain of Plasminogen (P00747 97-580 limits assumed): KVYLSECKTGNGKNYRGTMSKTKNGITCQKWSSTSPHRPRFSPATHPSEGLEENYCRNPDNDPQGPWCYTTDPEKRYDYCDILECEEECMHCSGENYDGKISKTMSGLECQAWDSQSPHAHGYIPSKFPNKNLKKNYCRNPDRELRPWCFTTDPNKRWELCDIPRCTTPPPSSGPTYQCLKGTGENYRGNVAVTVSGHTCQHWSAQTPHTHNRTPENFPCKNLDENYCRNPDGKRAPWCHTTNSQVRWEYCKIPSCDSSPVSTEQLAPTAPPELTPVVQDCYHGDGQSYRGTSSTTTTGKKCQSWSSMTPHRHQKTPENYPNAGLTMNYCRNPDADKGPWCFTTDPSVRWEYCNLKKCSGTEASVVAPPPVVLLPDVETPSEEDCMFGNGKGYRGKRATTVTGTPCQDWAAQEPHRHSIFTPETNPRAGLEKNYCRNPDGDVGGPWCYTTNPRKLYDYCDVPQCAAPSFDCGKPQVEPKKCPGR
Chain of Plasminogen (P00747 581-810 limits assumed): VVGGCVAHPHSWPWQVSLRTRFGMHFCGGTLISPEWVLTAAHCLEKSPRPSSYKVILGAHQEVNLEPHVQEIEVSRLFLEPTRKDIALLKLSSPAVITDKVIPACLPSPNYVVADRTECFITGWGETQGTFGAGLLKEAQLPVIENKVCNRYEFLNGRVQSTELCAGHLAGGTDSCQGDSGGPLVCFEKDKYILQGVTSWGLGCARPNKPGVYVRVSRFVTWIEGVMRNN
Chain of Tissue-type plasminogen activator (P00750 whole entry): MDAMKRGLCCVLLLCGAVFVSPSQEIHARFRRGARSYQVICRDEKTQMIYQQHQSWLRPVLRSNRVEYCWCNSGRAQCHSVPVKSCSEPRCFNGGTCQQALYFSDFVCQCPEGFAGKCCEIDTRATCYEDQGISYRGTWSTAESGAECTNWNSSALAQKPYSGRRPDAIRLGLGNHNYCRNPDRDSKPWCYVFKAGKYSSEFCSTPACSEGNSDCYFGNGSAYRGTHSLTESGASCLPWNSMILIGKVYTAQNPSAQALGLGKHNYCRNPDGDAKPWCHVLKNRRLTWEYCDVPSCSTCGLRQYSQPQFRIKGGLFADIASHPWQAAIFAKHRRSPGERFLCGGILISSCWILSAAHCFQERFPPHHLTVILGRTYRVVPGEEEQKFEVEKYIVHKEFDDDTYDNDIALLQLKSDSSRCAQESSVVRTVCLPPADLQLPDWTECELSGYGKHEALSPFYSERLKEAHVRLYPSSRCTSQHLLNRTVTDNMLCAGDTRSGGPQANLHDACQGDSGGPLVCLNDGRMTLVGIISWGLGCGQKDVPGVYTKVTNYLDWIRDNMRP

In the case of `CC[C@@H](c1cc(-c2ccc(N)nc2F)ccn1)n1cc(OC)c(-c2cc(Cl)ccc2-n2cnnn2)cc1=O`, the Ratio IC50 [1] is reported as > 1000, the Activity [2] is reported as “Dose-dependent-effect” and the EC1.5 ([2]; 0.05 h) is reported as 0.34 µM. For the same compound, the IC50 [3] was 0.31 nM, the Ratio IC50 [4] was > 1000 and the EC1.5 [5] was 1.5 µM. For the same compound, the Ratio IC50 [6] was > 1000, the IC50 [7] was > 1000 nM and the Activity [8] was “inactive”. For the same compound, the IC50 [9] was > 1000 nM, the Activity [10] was 335.4% and the Ratio IC50 [11] was > 1000. For the same compound, the Ratio IC50 [12] was > 1000, the Ratio IC50 [13] was > 1000 and the IC50 [14] was > 1000 nM. For the same compound, the IC50 [15] was > 1000 nM, the IC50 [16] was > 1000 nM and the IC50 [17] was > 1000 nM. For the same compound, the Ratio IC50 [18] was > 1000, the IC50 [19] was 36 nM and the IC50 [20] was > 1000 nM.

For `CC[C@@H](C(=O)Nc1ccc(C(N)=O)c(F)c1)n1cc(OC)c(-c2cc(Cl)ccc2-n2cc(Cl)nn2)cc1=O`, the EC1.5 [5] was 2.7 µM, the Activity [21] was “Active; Outperformed Asundexian And Compound F” and the Activity [10] was 248.2%. For the same compound, the Activity [22] was “Active”.

With `COc1cn(Cc2cccc(-c3ccncc3)c2)c(=O)cc1-c1cc(Cl)ccc1-n1cnnn1` the IC50 [3] was 0.5 nM, the Activity [10] was 122.1% and the fraction unbound [23] was 0.027.

In the case of `O=C(NC[C@H]1CN(c2ccc(N3CCOCC3=O)cc2)C(=O)O1)c1ccc(Cl)s1` [RIVAROXABAN], the Activity [24] is reported as “Toxic”, the Activity [25] is reported as “Non-toxic” and the Activity [26] is reported as “Non-toxic”. The Activity [27] was “Non-toxic” and the Activity [28] was “Toxic”.

Compound `COc1cn(Cc2cc(-c3ccncc3)ccn2)c(=O)cc1-c1cc(Cl)ccc1-n1cnnn1` has an IC50 [3] of 1.2 nM, an Activity [10] of 167.2% and a fraction unbound [23] of 0.159.
